According to patent US11033520B2, “Liposomal anticancer compositions” (IriSys, LLC, priority 2016, dated 2021):

Key:
[1] = Total doxorubicin content, recovery and encapsulation efficiency of liposomal suspension (HPLC); assay type: physicochemical; settings: 50:1 lipid/drug
Protocol: All HPLC was performed using an Agilent 1260 Infinity system, equipped with a G13110B pump, 01329B autosampler, G1316A column compartment, and a G1315D diode-array detector. OpenLab CDS (EZChrom edition) software controlled all modules and was used for analysis and reporting of chromatography. A Phenomenex Luna C18 column (5μ, 150×4.6 mm; part #00G-4252-E0) was used for all analyses.
Chromatographic analysis of doxorubicin (DOX) was performed on the Agilent 1260 Infinity system using a C18 column (see above) with a column temperature of 40° C. and sample temperature at ambient conditions (˜25° C.). All mobile phase reagents were filtered with a 0.45 μm filter membrane prior to use. HPLC grade acetonitrile was from EMD Millipore. […] Mobile phase flow rate was set to 1.0 mL/min with a run time of 15 minutes. The diode array detector was operated at 487 nm with a bandwidth of 4 nm. Injection volume was set to 10 μL.
Standard stock solution of doxorubicin was prepared in a 0.9% saline, or methanol, or water solution (1 mg/mL). Calibration standards were prepared by diluting the stock solution in anhydrous methanol to bracket the target concentration for analysis. For this study, the doxorubicin solution was diluted with anhydrous methanol or IPA to the final concentration 50 μg/mL, 100 μg/mL and 200 μg/mL; respectively. Samples of liposomal suspension were also diluted with anhydrous methanol or IPA by a factor of 8 or 10 times prior to analysis.
Determination of doxorubicin in liposomal suspension. Followed doxorubicin loading liposomal suspension was subjected to 5× TFF to majorly remove free (not encapsulated) doxorubicin. To determine total doxorubicin concentration at TO (within one week of MFD) TFF washed liposomes were diluted with methanol or IPA and subjected to HPLC analysis. Doxorubicin content, percent of recovery (doxorubicin content in liposomal suspension relative to doxorubicin free base concentration used for remote loading), and encapsulation efficiency (%) are presented in the Table 9. Encapsulation efficiency (%) represents the difference between doxorubicin recovery (%) and free doxorubicin (%).

[2] = counter ion; cited from earlier work
[3] = test system: Human B lymphoma cell line Ramos (RA 1); experiment: In vivo study: B lymphoma model in SCID Beige mice; settings: 3 mg doxorubicin/kg iv x3
Protocol: On the same day prior to administration into animals cell were counted, centrifuged at 12000 rpm, washed with sterile PBS, centrifuged again at 1200 rpm, resuspended in sterile PBS to the final cell count 35×10-per mL. Suspension of cells was administered into animals intravenously via single bolus injection to deliver 5×10^6 cells per mouse.
Four weeks old immune deficient SCID Beige, (Line—CB17.Cg-Prkdc^scidLyst^bg-J/Crl) mice were maintained on Chow diet. At the age of 8 weeks mice were subdivided in 3 groups. On the day 1, 5×10^6 B lymphoma cells were intravenously injected into each mouse (FIG. 2). […] On the day 2 and 3 all treatments were repeated (FIG. 2). Animals were monitored daily and weighed twice a week.
Treatment articles were administered intravenously in 120 μL via single bolus injection to deliver 60 μg of doxorubicin per mouse or ˜3 mg/kg dose.

Daudi cells = experiment: In vitro cell-based cytotoxicity assay (Alamar Blue), Daudi cells; settings: Homo sapiens, 1 hr exposure, 48 hrs culture
Protocol: (§1) Daudi cells (ATCC, CCL-213). Cells were plated in 96 well plates at the density 100K cells per well. Doxorubicin hydrochloride, Doxil®, or doxorubicin oxalate liposomes were appropriately diluted in Growth medium (RPMI-1640, 10% FBS) and added to the cells. After 1 hr of incubation at 37° C. plates were centrifuged, supernatant was removed via aspiration, 100 μL of fresh media were added into each well, and cells were cultured for 48 hrs.
(§2) On the day, 3 to assess cell viability, Alamar Blue solution was prepared in Growth medium (RPMI-1640, 10% FBS) at 1:250 dilution and added directly into cell media. After 6 hrs of incubation at 37° C. the resulting fluorescence was read on a plate reader. The fluorescence of cells that have not received any drug treatment was defined as maximum viability. The fluorescence of cell free media was defined as complete cell death. Data analysis was performed by using Prism nonlinear regression software (GraphPad Software) for the curve-fitting and determination of IC50 values.

Hela cells = experiment: cells; assay type: cell-based; settings: Homo sapiens, read-out: Hela, CC50, μM
Protocol: as §1, with “Hela” for “Daudi”, “(HeLa (ATCC CCL-2).” for “(ATCC, CCL-213).”, “25K” for “100K”, “(DMEM, 5% FBS, 1% antibiotic, 1% HEPES)” for “(RPMI-1640, 10% FBS)”
as §2

nucleus = settings: within 8 h after administration; cited from earlier work

Structure (SMILES) | doxorubicin loading into liposomes with this counter ion (in words) ([1]; remote loading at 70° C.) | also measured
O=CO [Formate] | no doxorubicin loading was observed | –
COc1cccc2c1C(=O)c1c(O)c3c(c(O)c1C2=O)C[C@@](O)(C(=O)CO)C[C@@H]3O[C@H]1C[C@H](N)[C@H](O)[C@H](C)O1.Cl [Doxorubicin Hydrochloride, Doxorubicin hydrochloride] | – | survival compared to Placebo (in words) [3]: survivors demonstrated longest MST; death rate ([3]; day 13): 50%; CC50 (Daudi cells): 0.4 µM; CC50 (Hela cells): 7 µM; drug translocated to / entered the nucleus (nucleus): 26%
O=C(O)CC(=O)O [Malonate] | no doxorubicin loading was observed | –
O=C1O[C@H]([C@@H](O)CO)C(O)=C1O [Ascorbate] | no doxorubicin loading was observed | –

More lines, main results first:

doxorubicin loading into liposomes with this counter ion (in words) ([1]; remote loading at 70° C.) | Structure (SMILES) | also measured
no doxorubicin loading was observed | CC(=O)N[C@@H](CS)C(=O)O [N-Acetyl- L-cysteine] | pKa 1 [2]: 3.82; doxorubicin loading into liposomes with this counter ion (in words) ([1]; cold loading at room temperature): no doxorubicin loading was observed
no doxorubicin loading was observed | O=C(O)c1ccccn1 [Picolinate] | –
no doxorubicin loading was observed | O=C(O)/C=C/C(=O)O [Fumarate] | –
no doxorubicin loading was observed | O=C(O)CCC(=O)O [Succinate] | –
no doxorubicin loading was observed | O=C(O)/C=C\C(=O)O [Maleate] | –
no doxorubicin loading was observed | N[C@@H](CS)C(=O)O [Cysteinate] | pKa 1 [2]: 1.96; pKa 2 [2]: 8.18
no doxorubicin loading was observed | CC(=O)O [Acetate] | –
